Activity calls are given as the source filed them. The rule behind the calls is not given here.
How the values were obtained:
[1] = tested on: GTPase KRas (Homo sapiens), P01116 [G12C]; assay: Covalent binding affinity to 6His tagged GDP bound human KRAS G12C mutant (1 to 169 residues) expressed in Escherichia coli BL21 (DE3) cells at 200 uM incubated for 24 hrs by LC-MS /MS analysis
[2] = tested on: NCI-H358; assay: Antitumor activity against human NCI-H358 cells harboring KRAS G12C mutant xenografted in BALB/c mouse assessed as increase in cleaved caspase-3 level at 10 to 15 mg/kg, ip administered for 21 days by IHC staining analysis; type: functional, organism-based; conditions: dose 10-15 mg/kg, time 21.0 day
[3] = tested on: GTPase KRas (Homo sapiens), P01116 [G12C]; assay: In vivo inhibition of KRAS signaling in BALB/C mouse xenografted with human NCI-H358 cells harboring KRAS G12C mutant assessed as decrease in ERK phosphorylation in tumor at 10 to 15 mg/kg, ip administered for 21 days by IHC staining based analysis; type: functional, organism-based; conditions: dose 10-15 mg/kg, time 21.0 day
[4] = tested on: NCI-H441; assay: Antiproliferative activity against human NCI-H441 cells harboring KRAS G12V mutant assessed as reduction in cell viability incubated for 72 hrs by MTT assay; type: functional, cell-based; conditions: NCI-H441, 72 h
[5] = tested on: NCI-H23; assay: Antiproliferative activity against human NCI-H23 cells harboring KRAS G12C mutant assessed as reduction in cell viability incubated for 72 hrs by MTT assay; type: functional, cell-based; conditions: NCI-H23, 72 h
[6] = Selectivity index, ratio of IC50 for human NCI-H2228 cells harboring wild type KRAS to IC50 for human NCI-H358 cells harboring KRAS G12C mutant; type: functional
[7] = Selectivity index, ratio of IC50 for human A549 cells harboring KRAS G12S mutant to IC50 for human NCI-H358 cells harboring KRAS G12C mutant; type: functional
[8] = Toxicity in BALB/c mouse xenografted with human NCI-H358 cells harboring KRAS G12C mutant assessed as effect on body weight at 10 to 15 mg/kg, ip administered for 21 days; type: organism-based; conditions: in vivo, 504 h, dose 10-15 mg/kg, time 21 day
[9] = tested on: NCI-H2228; assay: Antiproliferative activity against human NCI-H2228 cells harboring wild type KRAS assessed as reduction in cell viability incubated for 72 hrs by MTT assay; type: functional, cell-based; conditions: NCI-H2228, 72 h
[10] = tested on: A549; assay: Antiproliferative activity against human A549 cells harboring KRAS G12S mutant assessed as reduction in cell viability incubated for 72 hrs by MTT assay; type: functional, cell-based; conditions: A549, 72 h
[11] = tested on: NCI-H358; assay: Antiproliferative activity against human NCI-H358 cells harboring KRAS G12C mutant assessed as reduction in cell viability incubated for 72 hrs by MTT assay; type: functional, cell-based; conditions: NCI-H358, 72 h
[12] = tested on: NCI-H358; assay: Inhibition of KRAS signaling in human NCI-H358 cells harboring KRAS G12C mutant assessed as decrease in AKT phosphorylation level at 0.5 to 8 uM incubated for 6 hrs by Western blot analysis relative to control; type: cell-based; conditions: dose 0.5-8 µM
[13] = Cytotoxicity against human MRC5 cells assessed as reduction in cell viability incubated for 72 hrs by MTT assay; type: toxicity, cell-based
[14] = tested on: NCI-H358; assay: Antitumor activity against human NCI-H358 cells harboring KRAS G12C mutant xenografted in BALB/c mouse assessed as tumor growth inhibition at 15 mg/kg, ip administered for 21 days; type: functional; conditions: NCI-H358, 504 h, time 21 day, read-out: TGI
[15] = biological target: GTPase KRas (Homo sapiens) (UniProt P01116); assay: Covalent binding affinity to 6his tagged GDP bound human wildtype KRAS expressed in Escherichia coli BL21 (DE3) cells at 200 uM incubated for 24 hrs by LC-MS/MS analysis
[16] = Selectivity index, ratio of IC50 for human MRC5 cells to IC50 for human NCI-H358 cells harboring KRAS G12C mutant
[17] = tested on: NCI-H358; assay: Induction of apoptosis in human NCI-H358 cells assessed as fold change in cleaved caspase-3 level at 0.5 to 8 uM incubated for 6 hrs by Western blot analysis; type: functional; conditions: dose 0.5-8 µM
[18] = tested on: GTPase KRas (Homo sapiens), P01116 [G12C]; assay: Inhibition of 6His tagged Mant-GDP loaded human KRAS G12C mutant (1 to 169 residues) expressed in Escherichia coli BL21 (DE3) cells assessed as inhibition of […] nucleotide exchange at 10 uM preincubated with compound for 1 hrs followed by addition of GTP and EDTA and measured every 90 sec for 2 hrs by fluorescence based assay; conditions: time 3.0 hrs
[19] = tested on: SK-LU-1; assay: Antiproliferative activity against human SK-LU-1 cells harboring KRAS G12D mutant assessed as reduction in cell viability incubated for 72 hrs by MTT assay; type: functional, cell-based; conditions: SK-LU-1, 72 h
[20] = tested on: NCI-H358; assay: Inhibition of KRAS signaling in human NCI-H358 cells harboring KRAS G12C mutant assessed as decrease in ERK phosphorylation level at 0.5 to 8 uM incubated for 6 hrs by Western blot analysis relative to control; type: cell-based; conditions: dose 0.5-8 µM
[21] = tested on: GTPase KRas (Homo sapiens), P01116 [G12C]; assay: Inhibition of 6His tagged Mant-GDP loaded human KRAS G12C mutant (1 to 169 residues) expressed in Escherichia coli BL21 (DE3) cells assessed as inhibition of SOS1-mediated nucleotide exchange at 10 uM preincubated with compound for 1 hrs followed by addition of GTP and SOS1 protein and measured every 90 sec for 2 hrs by fluorescence based assay; conditions: time 3.0 hrs
[22] = Selectivity index, ratio of IC50 for human NCI-H2228 cells harboring wild type KRAS to IC50 for human NCI-H23 cells harboring KRAS G12C mutant; type: functional
[23] = tested on: NCI-H358; assay: Antitumor activity against human NCI-H358 cells harboring KRAS G12C mutant xenografted in BALB/c mouse assessed as reduction in tumor growth at 10 to 15 mg/kg, ip administered for 21 days by Ki67 staining based analysis; type: functional, organism-based; conditions: dose 10-15 mg/kg, time 21.0 day
[24] = Selectivity index, ratio of IC50 for human A549 cells harboring KRAS G12S mutant to IC50 for human NCI-H23 cells harboring KRAS G12C mutant; type: functional
[25] = tested on: NCI-H358; assay: Antitumor activity against human NCI-H358 cells harboring KRAS G12C mutant xenografted in BALB/c mouse assessed as tumor growth inhibition at 10 mg/kg, ip administered for 21 days; type: functional, organism-based; conditions: time 21.0 day
[26] = biological target: GTPase KRas (Homo sapiens) (UniProt P01116); assay: Inhibition of KRAS signaling in human NCI-H2228 cells harboring wildtype KRAS at 0.5 to 8 uM incubated for 6 hrs by Western blot analysis; type: cell-based; conditions: dose 0.5-8 µM

Compound: O=C(CCl)N1CCN(C(=O)Nc2ccc(Cl)c(-c3ccccc3F)c2)CC1
- Activity [1]: Active
- Activity [2]: Active
- inhibition [3]: Active
- IC50 [4]: 4.4 µM
- IC50 [5]: 1.3 µM
- Ratio IC50 [6]: 7
- Ratio IC50 [7]: 7
- Activity [8]: Non-Toxic
- IC50 [9]: 11.6 µM
- IC50 [10]: 9.3 µM
- IC50 [11]: 0.5 µM
- inhibition [12]: 30%
- IC50 at 72 h [13]: 6.1 µM
- inhibition in vivo at 15 mg/kg [14]: 50%
- Activity [15]: inactive
- Ratio IC50 [16]: 12
- fold change (FC) [17]: 2
- inhibition [18]: inactive
- IC50 [19]: 4.6 µM
- inhibition [20]: 40%
- inhibition [21]: Active
- Ratio IC50 [22]: 7
- Activity [23]: Active
- Ratio IC50 [24]: 7
- TGI [25]: Active
- inhibition [26]: inactive

— ChEMBL document CHEMBL5247585, “Design, synthesis, and evaluation of 4(1H)-quinolinone and urea derivatives as KRASG12C inhibitors with potent antitumor activity against KRAS-mutant non-small cell lung cancer” (Eur J Med Chem, 2022)
